# Reference: ChEMBL document CHEMBL3774368, “1,2,4-Triazolyl octahydropyrrolo[2,3-b]pyrroles: A new series of potent and selective dopamine D3 receptor antagonists” (Bioorg Med Chem, 2016)
# pIC50, pKi: −log10 of the molar value.
# Biological target: Voltage-gated inwardly rectifying potassium channel KCNH2 (Homo sapiens, UniProt Q12809)
# Test: Inhibition of human ERG tail current expressed in HEK293 cells after 5 mins by patch clamp assay
# Chain of Voltage-gated inwardly rectifying potassium channel KCNH2 (Q12809 whole entry): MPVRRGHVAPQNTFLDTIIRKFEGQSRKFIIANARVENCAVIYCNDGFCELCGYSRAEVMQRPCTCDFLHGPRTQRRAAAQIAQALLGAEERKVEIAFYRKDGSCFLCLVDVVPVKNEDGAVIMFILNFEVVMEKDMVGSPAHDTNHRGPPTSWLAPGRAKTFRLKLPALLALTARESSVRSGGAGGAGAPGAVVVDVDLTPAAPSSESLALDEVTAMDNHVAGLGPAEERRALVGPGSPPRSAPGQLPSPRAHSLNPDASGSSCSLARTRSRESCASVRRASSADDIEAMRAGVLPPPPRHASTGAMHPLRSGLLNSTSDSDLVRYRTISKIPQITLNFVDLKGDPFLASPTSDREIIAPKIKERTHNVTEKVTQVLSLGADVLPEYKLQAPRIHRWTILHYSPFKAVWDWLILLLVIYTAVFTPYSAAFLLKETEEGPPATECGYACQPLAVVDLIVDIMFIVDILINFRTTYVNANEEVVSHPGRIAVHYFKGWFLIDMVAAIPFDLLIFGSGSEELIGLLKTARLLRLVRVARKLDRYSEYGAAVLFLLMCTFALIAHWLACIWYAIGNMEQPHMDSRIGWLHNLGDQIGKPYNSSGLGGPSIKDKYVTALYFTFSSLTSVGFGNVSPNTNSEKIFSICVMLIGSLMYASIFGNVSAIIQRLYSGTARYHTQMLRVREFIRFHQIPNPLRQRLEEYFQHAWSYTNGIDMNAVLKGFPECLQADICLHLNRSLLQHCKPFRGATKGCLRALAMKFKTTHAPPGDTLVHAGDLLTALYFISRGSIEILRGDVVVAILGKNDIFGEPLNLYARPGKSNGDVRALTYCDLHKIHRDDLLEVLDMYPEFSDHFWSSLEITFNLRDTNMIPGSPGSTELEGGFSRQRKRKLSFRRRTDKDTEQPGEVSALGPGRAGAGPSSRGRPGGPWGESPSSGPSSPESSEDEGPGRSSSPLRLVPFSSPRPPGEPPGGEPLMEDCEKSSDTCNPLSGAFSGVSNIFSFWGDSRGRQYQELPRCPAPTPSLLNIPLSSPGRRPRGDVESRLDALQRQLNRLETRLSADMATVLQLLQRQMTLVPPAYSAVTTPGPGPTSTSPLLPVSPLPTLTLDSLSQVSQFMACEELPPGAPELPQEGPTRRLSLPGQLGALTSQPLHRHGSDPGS
row,SMILES,pIC50
1,Cc1ncoc1-c1nnc(SCCCN2CC3CCN(c4cc(Cl)cc(Cl)c4)C3C2)n1C (racemic),> 7.00
2,Cc1ncoc1-c1nnc(SCCCN2CC3CCN(c4ccc(C(F)(F)F)cc4F)C3C2)n1C (racemic),4.80
3,Cn1c(SCCCN2CC3CCN(c4ccc(C(F)(F)F)cc4)C3C2)nnc1-c1cc[nH]c(=O)c1 (racemic),5.90
4,Cc1ncoc1-c1nnc(SCCCN2CC3CCN(c4ccc(C(F)(F)F)cc4F)C3C2)n1C (stereo in doubt; 8a),6.70
5,Cc1ncoc1-c1nnc(SCCCN2CC3CCN(c4cccc(C#N)c4)C3C2)n1C (stereo in doubt; 12b),6.10
6,Cn1c(SCCCN2CC3CCN(c4ccc(C(F)(F)F)cc4)C3C2)nnc1-c1ccc(=O)[nH]c1 (racemic),6.00
7,Cc1ncoc1-c1nnc(SCCCN2CC3CCN(c4ccccc4)C3C2)n1C (stereo in doubt; 6a),5.80
8,Cc1ncoc1-c1nnc(SCCCN2CC3CN(c4ccc(C(F)(F)F)cc4)C3C2)n1C (racemic),6.20
9,Cc1ncoc1-c1nnc(SCCCN2CC3CCN(c4ccc(Cl)cc4Cl)C3C2)n1C (racemic),5.90

# Biological target: D(3) dopamine receptor (Homo sapiens, UniProt P35462)
# Sequence (P35462 whole entry): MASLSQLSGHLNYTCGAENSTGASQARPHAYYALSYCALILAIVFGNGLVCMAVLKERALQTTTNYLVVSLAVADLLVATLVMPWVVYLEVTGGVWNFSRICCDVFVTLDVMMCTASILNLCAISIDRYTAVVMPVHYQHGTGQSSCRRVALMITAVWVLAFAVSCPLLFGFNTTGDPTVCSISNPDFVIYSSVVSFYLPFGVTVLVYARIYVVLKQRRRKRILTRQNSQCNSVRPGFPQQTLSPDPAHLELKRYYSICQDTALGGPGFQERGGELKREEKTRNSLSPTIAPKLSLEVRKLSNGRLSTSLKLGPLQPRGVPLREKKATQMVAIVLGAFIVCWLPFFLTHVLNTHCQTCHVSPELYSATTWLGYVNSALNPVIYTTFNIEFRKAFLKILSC
# Test: Displacement of [3H]-spiperone from human dopamine D3 receptor expressed in CHO-K1 cell membranes after 90 mins by liquid scintillation counter method
row,SMILES,pKi
1,Cn1c(SCCCN2CC3CCN(c4ccc(C(F)(F)F)cc4)C3C2)nnc1-c1ccc(=O)n(C)c1 (racemic),8.20
2,Cn1c(SCCCN2CC3CCN(c4ccccc4C(F)(F)F)C3C2)nnc1-c1ccncc1 (racemic),8.30
3,Cn1c(SCCCN2CC3CCN(c4ccccc4)C3C2)nnc1C1CCOCC1 (racemic),7.90
4,COc1ccccc1N1CCC2CN(CCCSc3nnc(-c4cnccn4)n3C)CC21 (racemic),7.80
5,Cn1c(SCCCN2CC3CCN(c4ccc(F)cc4)C3C2)nnc1C1CCCCC1 (racemic),7.90
6,Cc1ncoc1-c1nnc(SCCCN2CC3CCN(c4cc(Cl)cc(Cl)c4)C3C2)n1C (racemic),9.40
7,Cc1ncoc1-c1nnc(SCCCN2CC3CCN(c4ccc(C(F)(F)F)cc4F)C3C2)n1C (racemic),8.70
8,Cc1ccc(N2CCC3CN(CCCSc4nnc(-c5cnccn5)n4C)CC32)cc1 (racemic),8.10
9,Cn1c(SCCCN2CC3CCN(c4cccc(OC(F)(F)F)c4)C3C2)nnc1-c1cnccn1 (racemic),9.50
10,Cn1c(SCCCN2CC3CCN(c4ccc(F)cc4)C3C2)nnc1-c1cnccn1 (racemic),8.70
11,Cc1ncoc1-c1nnc(SCCCN2CC3CCN(c4ccc(C(F)(F)F)cc4)C3C2)n1C (racemic),8.80
12,Cn1c(SCCCN2CC3CCN(c4ccc(C#N)cc4)C3C2)nnc1-c1cnccn1 (racemic),6.90
13,Cn1c(SCCCN2CC3CCN(c4ccccc4C(F)(F)F)C3C2)nnc1-c1ccccn1 (racemic),8.30
14,Cn1c(SCCCN2CC3CCN(c4ccccc4C#N)C3C2)nnc1-c1cnccn1 (racemic),8.20
15,Cn1c(SCCCN2CC3CCN(c4ccc(C(F)(F)F)cc4)C3C2)nnc1C1CCCCC1 (stereo in doubt; 65a),7.90
16,Cn1c(SCCCN2CC3CCN(c4c(F)cccc4C(F)(F)F)C3C2)nnc1-c1cnccn1 (racemic),8.40
17,Cn1c(SCCCN2CC3CCN(c4ccc(F)cc4C(F)(F)F)C3C2)nnc1-c1cnccn1 (racemic),7.60
18,Cn1c(SCCCN2CC3CCN(c4ccc(C(F)(F)F)cc4)C3C2)nnc1-c1cc[nH]c(=O)c1 (racemic),8.10
19,Cc1ncoc1-c1nnc(SCCCN2CC3CCN(c4ccc(C(F)(F)F)cc4)C3C2)n1C (stereo in doubt; 7a),8.70
20,Cc1ncoc1-c1nnc(SCCCN2CC3CCN(c4c(F)cccc4F)C3C2)n1C (racemic),8.60
21,Cc1ncoc1-c1nnc(SCCCN2CC3CCN(c4ccc(C(F)(F)F)cc4)C3C2)n1C (stereo in doubt; 7b),8.50
22,Cn1c(SCCCN2CC3CCN(c4ccc(F)cc4F)C3C2)nnc1-c1cnccn1 (stereo in doubt; 36a),8.00
23,Cc1ncoc1-c1nnc(SCCCN2CC3CCN(c4ccc(C(F)(F)F)cc4F)C3C2)n1C (stereo in doubt; 8a),8.30
24,Cn1c(SCCCN2CC3CCN(c4ccc(C(F)(F)F)cc4)C3C2)nnc1-c1cccnn1 (racemic),7.30
25,CC(C)Oc1ccccc1N1CCC2CN(CCCSc3nnc(-c4cnccn4)n3C)CC21 (racemic),8.00
26,Cc1ncoc1-c1nnc(SCCCN2CC3CCN(c4cccc(C#N)c4)C3C2)n1C (stereo in doubt; 12b),8.20
27,Cn1c(SCCCN2CC3CCN(c4ccc(OC(F)(F)F)cc4)C3C2)nnc1-c1cnccn1 (racemic),7.90
28,Cc1ccccc1N1CCC2CN(CCCSc3nnc(-c4cnccn4)n3C)CC21 (racemic),6.90

row,SMILES,pKi
1,Cn1c(SCCCN2CC3CCN(c4cccc(C#N)c4)C3C2)nnc1-c1cnccn1 (racemic),8.70
2,Cc1ncoc1-c1nnc(SCCCN2CC3CCN(c4ccccc4OC(F)(F)F)C3C2)n1C (racemic),9.00
3,Cn1c(SCCCN2CC3CCN(c4ccccc4)C3C2)nnc1C1CCOCC1 (stereo in doubt; 62b),7.60
4,Cc1cccc(N2CCC3CN(CCCSc4nnc(-c5cnccn5)n4C)CC32)c1 (racemic),8.40
5,COc1cc(N2CCC3CN(CCCSc4nnc(-c5cnccn5)n4C)CC32)ccc1F (racemic),8.50
6,Cn1c(SCCCN2CC3CCN(c4c(F)cc(F)cc4F)C3C2)nnc1-c1cnccn1 (racemic),9.00
7,Cc1ncoc1-c1nnc(SCCCN2CC3OCCN(c4ccc(C(F)(F)F)cc4)C3C2)n1C (racemic),7.50
8,Cn1c(SCCCN2CC3CCN(c4ccc(C(F)(F)F)cc4)C3C2)nnc1C1CCCC1 (racemic),9.40
9,Cn1c(SCCCN2CC3CCN(c4ccc(C(F)(F)F)cc4)C3C2)nnc1-c1ccc(=O)[nH]c1 (racemic),8.40
10,Cn1c(SCCCN2CC3CCN(c4ccc(F)cc4)C3C2)nnc1-c1ccn(C)c(=O)c1 (racemic),8.10
11,Cn1c(SCCCN2CC3CCN(c4ccc(C(F)(F)F)cc4)C3C2)nnc1-c1cncnc1 (racemic),7.30
12,Cc1cc(-c2nnc(SCCCN3CC4CCN(c5ccc(C(F)(F)F)cc5)C4C3)n2C)on1 (racemic),8.60
13,Cn1c(SCCCN2CC3CCN(c4ccc(F)cc4F)C3C2)nnc1-c1cnccn1 (racemic),8.00
14,Cn1c(SCCCN2CC3CCN(c4ccc(C(F)(F)F)cc4)C3C2)nnc1N1CCOCC1 (stereo in doubt; 61a),8.50
15,Cn1c(SCCCN2CC3CCN(c4ccc(C(F)(F)F)cc4)C3C2)nnc1C1CCCC1 (stereo in doubt; 64a),9.70
16,Cn1c(SCCCN2CC3CCN(c4ccc(C(F)(F)F)cc4)C3C2)nnc1N1CCOCC1 (stereo in doubt; 61b),8.70
17,Cn1c(SCCCN2CC3CCN(c4ccc(C(F)(F)F)cc4)C3C2)nnc1C1CCCCC1 (racemic),7.40
18,Cn1c(SCCCN2CC3CCN(c4cccc(C(F)(F)F)c4)C3C2)nnc1-c1cnccn1 (racemic),9.70
19,Cn1c(SCCCN2CC3CCN(c4ccc(C(F)(F)F)cc4)C3C2)nnc1-c1cccnc1 (racemic),8.50
20,Cn1c(SCCCN2CC3CCN(c4ccc(C(F)(F)F)cc4)C3C2)nnc1-c1ccnnc1 (racemic),7.90
21,Cc1ncoc1-c1nnc(SCCCN2CC3CN(c4ccc(C(F)(F)F)cc4)C3C2)n1C (racemic),7.40
22,Cn1c(SCCCN2CC3CCN(c4ccc(C(F)(F)F)cc4)C3C2)nnc1-c1ccncc1 (racemic),8.70
23,Cn1c(SCCCN2CC3CCN(c4cccc(F)c4)C3C2)nnc1-c1cnccn1 (racemic),8.30
24,CC(C)Oc1ccccc1N1CCC2CN(CCCSc3nnc(-c4cnccn4)n3C)CC21 (stereo in doubt; 35a),7.20
25,Cn1c(SCCCN2CC3CCN(c4ccc(C(F)(F)F)cc4)C3C2)nnc1-c1cc[nH]c(=O)c1 (stereo in doubt; 55a),7.80
26,Cc1ncoc1-c1nnc(SCCCN2CC3CCN(c4ccc(Cl)cc4Cl)C3C2)n1C (racemic),8.30
27,Cc1ncoc1-c1nnc(SCCCN2CC3CCCN(c4ccc(C(F)(F)F)cc4)C3C2)n1C (racemic),7.90

# Biological target: D(2) dopamine receptor (Homo sapiens, UniProt P14416)
# Sequence (P14416 whole entry): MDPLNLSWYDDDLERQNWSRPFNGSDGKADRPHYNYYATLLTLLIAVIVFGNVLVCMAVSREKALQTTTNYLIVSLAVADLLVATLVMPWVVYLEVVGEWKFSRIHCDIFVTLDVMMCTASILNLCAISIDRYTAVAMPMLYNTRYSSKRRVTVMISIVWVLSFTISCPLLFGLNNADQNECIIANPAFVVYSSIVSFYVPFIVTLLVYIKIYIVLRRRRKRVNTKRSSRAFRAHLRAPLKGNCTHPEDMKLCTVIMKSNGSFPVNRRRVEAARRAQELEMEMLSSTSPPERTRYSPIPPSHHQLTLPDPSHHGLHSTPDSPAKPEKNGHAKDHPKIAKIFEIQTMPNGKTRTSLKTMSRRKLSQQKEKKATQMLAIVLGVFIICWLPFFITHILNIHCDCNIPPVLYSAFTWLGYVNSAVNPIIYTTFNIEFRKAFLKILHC
# Test: Displacement of [3H]-spiperone from human dopamine D2 receptor expressed in CHO-K1 cell membranes after 120 mins by liquid scintillation counter method
row,SMILES,pKi
1,Cn1c(SCCCN2CC3CCN(c4ccccc4C(F)(F)F)C3C2)nnc1-c1ccncc1 (racemic),6.60
2,COc1ccccc1N1CCC2CN(CCCSc3nnc(-c4cnccn4)n3C)CC21 (racemic),6.50
3,Cn1c(SCCCN2CC3CCN(c4ccc(F)cc4)C3C2)nnc1C1CCCCC1 (racemic),6.10
4,Cn1c(SCCCN2CC3CCN(c4ccccc4C(F)(F)F)C3C2)nnc1-c1cccnc1 (stereo in doubt; 52b),5.90
5,Cc1ncoc1-c1nnc(SCCCN2CC3CCN(c4cc(Cl)cc(Cl)c4)C3C2)n1C (racemic),8.00
6,Cc1ncoc1-c1nnc(SCCCN2CC3CCN(c4ccc(C(F)(F)F)cc4F)C3C2)n1C (racemic),7.00
7,Cc1ccc(N2CCC3CN(CCCSc4nnc(-c5cnccn5)n4C)CC32)cc1 (racemic),6.20
8,Cn1c(SCCCN2CC3CCN(c4ccc(C(F)(F)F)cc4)C3C2)nnc1N1CCOCC1 (racemic),6.70
9,Cn1c(SCCCN2CC3CCN(c4ccc(F)cc4)C3C2)nnc1-c1cnccn1 (racemic),6.70
10,Cn1c(SCCCN2CC3CCN(c4ccc(C#N)cc4)C3C2)nnc1-c1cnccn1 (racemic),5.20
11,Cn1c(SCCCN2CC3CCN(c4ccccc4C(F)(F)F)C3C2)nnc1-c1ccccn1 (racemic),6.50
12,Cn1c(SCCCN2CC3CCN(c4ccccc4C#N)C3C2)nnc1-c1cnccn1 (racemic),6.70
13,Cn1c(SCCCN2CC3CCN(c4c(F)cccc4C(F)(F)F)C3C2)nnc1-c1cnccn1 (racemic),6.40
14,Cc1ncoc1-c1nnc(SCCCN2CC3CCN(c4ccc(OC(F)(F)F)cc4)C3C2)n1C (racemic),6.20
15,Cn1c(SCCCN2CC3CCN(c4ccc(C(F)(F)F)cc4)C3C2)nnc1-c1cc[nH]c(=O)c1 (racemic),6.20
16,Cc1ncoc1-c1nnc(SCCCN2CC3CCN(c4cccc(C#N)c4)C3C2)n1C (racemic),7.30
17,Cn1c(SCCCN2CC3CCN(c4ccc(C(F)(F)F)cc4)C3C2)nnc1-c1ccccn1 (racemic),6.40
18,Cn1c(SCCCN2CC3CCN(c4ccc(F)cc4F)C3C2)nnc1-c1cnccn1 (stereo in doubt; 36a),6.00
19,Cc1ncoc1-c1nnc(SCCCN2CC3CCN(c4ccccc4)C3C2)n1C (racemic),6.60
20,Cc1ncoc1-c1nnc(SCCCN2CC3CCN(c4ccc(C(F)(F)F)cc4F)C3C2)n1C (stereo in doubt; 8a),5.80
21,Cn1c(SCCCN2CC3CCN(c4ccc(C(F)(F)F)cc4)C3C2)nnc1-c1cccnn1 (racemic),6.50
22,Cc1ncoc1-c1nnc(SCCCN2CC3CCN(c4ccc(F)cc4)C3C2)n1C (stereo in doubt; 9b),6.70
23,CC(C)Oc1ccccc1N1CCC2CN(CCCSc3nnc(-c4cnccn4)n3C)CC21 (racemic),6.60
24,Cc1ncoc1-c1nnc(SCCCN2CC3CCN(c4cccc(C#N)c4)C3C2)n1C (stereo in doubt; 12b),6.20
25,Cn1c(SCCCN2CC3CCN(c4ccc(OC(F)(F)F)cc4)C3C2)nnc1-c1cnccn1 (racemic),6.50

row,SMILES,pKi
1,Cn1c(SCCCN2CC3CCN(c4cccc(C#N)c4)C3C2)nnc1-c1cnccn1 (racemic),7.00
2,Cc1ncoc1-c1nnc(SCCCN2CC3CCN(c4ccccc4OC(F)(F)F)C3C2)n1C (racemic),7.70
3,Cn1c(SCCCN2CC3CCN(c4ccc(C(F)(F)F)cc4)C3C2)nnc1-c1cnccn1 (stereo in doubt; 17a),6.30
4,COc1cc(N2CCC3CN(CCCSc4nnc(-c5cnccn5)n4C)CC32)ccc1F (racemic),6.30
5,Cn1c(SCCCN2CC3CCN(c4c(F)cc(F)cc4F)C3C2)nnc1-c1cnccn1 (racemic),6.20
6,Cn1c(SCCCN2CC3CCN(c4ccc(C(F)(F)F)cc4)C3C2)nnc1-c1ccc(=O)[nH]c1 (racemic),6.40
7,Cc1ncoc1-c1nnc(SCCCN2CC3CCN(c4ccccc4)C3C2)n1C (stereo in doubt; 6a),6.40
8,Cn1c(SCCCN2CC3CCN(c4ccc(F)cc4)C3C2)nnc1-c1ccn(C)c(=O)c1 (racemic),6.40
9,Cn1c(SCCCN2CC3CCN(c4c(F)cccc4F)C3C2)nnc1-c1cnccn1 (racemic),6.20
10,Cn1c(SCCCN2CC3CCN(c4ccc(C(F)(F)F)cc4)C3C2)nnc1-c1cncnc1 (racemic),5.90
11,Cc1cc(-c2nnc(SCCCN3CC4CCN(c5ccc(C(F)(F)F)cc5)C4C3)n2C)on1 (racemic),6.80
12,Cn1c(SCCCN2CC3CCN(c4ccc(F)cc4F)C3C2)nnc1-c1cnccn1 (racemic),6.40
13,Cn1c(SCCCN2CC3CCN(c4ccc(C(F)(F)F)cc4)C3C2)nnc1N1CCOCC1 (stereo in doubt; 61b),6.70
14,Cn1c(SCCCN2CC3CCN(c4ccc(C(F)(F)F)cc4)C3C2)nnc1C1CCCCC1 (racemic),5.20
15,Cn1c(SCCCN2CC3CCN(c4cccc(C(F)(F)F)c4)C3C2)nnc1-c1cnccn1 (racemic),7.50
16,Cn1c(SCCCN2CC3CCN(c4ccc(F)cc4)C3C2)nnc1-c1cc[nH]c(=O)c1 (racemic),6.20
17,Cn1c(SCCCN2CC3CCN(c4ccc(C(F)(F)F)cc4)C3C2)nnc1-c1ccnnc1 (racemic),6.20
18,Cn1c(SCCCN2CC3CCN(c4ccc(C(F)(F)F)cc4)C3C2)nnc1-c1ccncc1 (racemic),6.40
19,Cn1c(SCCCN2CC3CCN(c4cccc(F)c4)C3C2)nnc1-c1cnccn1 (racemic),6.60
20,Cc1ncoc1-c1nnc(SCCCN2CC3CCN(c4ccc(F)cc4)C3C2)n1C (racemic),6.70
21,CC(C)Oc1ccccc1N1CCC2CN(CCCSc3nnc(-c4cnccn4)n3C)CC21 (stereo in doubt; 35a),5.30
22,Cn1c(SCCCN2CC3CCN(c4ccc(C(F)(F)F)cc4)C3C2)nnc1-c1cc[nH]c(=O)c1 (stereo in doubt; 55a),5.70
23,Cc1ncoc1-c1nnc(SCCCN2CC3CCN(c4ccc(Cl)cc4Cl)C3C2)n1C (racemic),6.30
24,Cn1cc(-c2nnc(SCCCN3CC4CCN(c5ccc(C(F)(F)F)cc5)C4C3)n2C)cn1 (racemic),6.70
25,Cn1c(SCCCN2CC3CCN(c4ccccc4C(F)(F)F)C3C2)nnc1-c1cccnc1 (racemic),6.10
